Here are results for 16 molecules from patent publication US11426393B2, “Prolyl hydroxylase inhibitors and methods of use” (Akebia Therapeutics, Inc., priority 2006, dated 2022).

For one assay, the system named is VEGF. Nature of the assay: VEGF ELISA assay. It is filed as cell-based. Particulars: Homo sapiens; HEK293 cells; % of DFO stimulation. The method, then: HEK293 cells are seeded in 96-well poly-lysine coated plates at 20,000 ceils per well in DMEM (10% FBS, 1% NEAA, 0.1% glutamine). Following overnight incubation, the cells are washed with 100 uL of Opti-MEM (Gibco, Carlsbad, Calif.) to remove serum. Compound in DMSO is serially diluted (beginning with 100 μM) in Qpti-MEM and added to the cells. The conditioned media is analyzed for VEGF with a Quantikine human VEGF immunoassay kit (R&D Systems, Minneapolis, Minn.). Optical density measurements at 450 nm are recorded using the Spectra Max 250 (Molecular Devices, Sunnyvale, Calif.). Data defined as % of DFO stimulation is used to calculate EC50 values with GraphPad Prism 4 software (San Diego, Calif.).
Background: ELISA stands for enzyme-linked immunosorbent assay.

In another assay the target is human EGLN-3 (Homo sapiens (Human), UniProt Q9H6Z9). Nature of the assay: EGLN-3 activity assay (MALDI-TOF MS). It is filed as biochemical. Particulars: His-MBP-TVMV-EGLN-3 fusion; HIF-1α peptide 556-574 as substrate; read-out: EGLIN3 IC50. The method, then: (§1) Data defined as percent conversion of substrate to product is analyzed in GraphPad Prism 4 to calculate IC50 values.

In another assay the test system is EPO. Nature of the assay: Mouse serum EPO assay (mouse ischemic hindlimb study). It counts as in vivo. The method, then:
(§2) Mouse Ischemic Hindlimb Study
(§3) All animal work is conducted in accordance with the Guide for the Care and Use of Laboratory Animals (National Academy of Sciences; Copyright©1996) and the Institutional Animal Care and Use Committee guidelines at Procter and Gamble Pharmaceuticals. We studied 9-10 week old male C57Bl/6 mice from Charles River Laboratory (Portage, Mich.). The mice are orally dosed with vehicle (aqueous carbonate buffer, 50 mM; pH 9.0) or compound 1 in vehicle at 50 mg/kg or 100 mg/kg. The animals are dosed three times: day 1 at 8 am and 5 pm, day 2 at […]. One hour after the first dose, unilateral arterial ligation is performed under anesthesia using isoflurane. The femoral artery is ligated proximal to the origin of the popliteal artery. The contralateral limb underwent a sham surgical procedure. Ligation is performed in an alternating fashion between right and left hindlimbs. Two hours after 8 am dosing on day 2, we obtained blood by ventricular stick while the mice are anesthetized with isoflurane. Serum samples for EPO analysis are obtained using gel clot serum separation tubes. Heart, liver, and gastrocnemius muscles are harvested, snap-frozen in liquid nitrogen, and stored in −80° C. until use.
The mouse serum EPO is detected using Mouse Quantikine Erythropoietin ELISA kit from R&D Systems according to manufacturer's ins tractions.

A further assay deals with human EGLN-1 (Homo sapiens (Human), UniProt Q9GZT9). Nature of the assay: EGLN-1 activity assay (MALDI-TOF MS). It counts as biochemical. Conditions: read-out: EGLIN1 IC50. The method, then:
as §1

The test system of the next assay is HIF-1α. Nature of the assay: Mouse tissue HIF Western blot analysis. It counts as in vivo. Conditions: mouse liver, FIG. 1. The method, then: as §2, §3
Mouse Tissue HIF Western Blot Analysis
Tissues from mice stored at −80° C. are powdered with mortar and pestle chilled with liquid nitrogen. […]
In general terms: In western blotting, separated proteins are transferred to a membrane and probed.

Each structure is given as a SMILES string. Some results are limits rather than exact numbers.

human EGLN-1, sequence (Q9GZT9 179-426): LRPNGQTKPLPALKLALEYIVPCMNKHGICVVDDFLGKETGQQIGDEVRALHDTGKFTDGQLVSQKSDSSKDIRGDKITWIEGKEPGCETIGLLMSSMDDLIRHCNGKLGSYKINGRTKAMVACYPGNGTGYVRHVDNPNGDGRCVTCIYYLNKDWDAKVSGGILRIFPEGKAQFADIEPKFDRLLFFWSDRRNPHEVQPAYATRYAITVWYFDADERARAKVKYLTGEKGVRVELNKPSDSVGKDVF
human EGLN-3, sequence (Q9H6Z9 whole entry, the tested form may be a part): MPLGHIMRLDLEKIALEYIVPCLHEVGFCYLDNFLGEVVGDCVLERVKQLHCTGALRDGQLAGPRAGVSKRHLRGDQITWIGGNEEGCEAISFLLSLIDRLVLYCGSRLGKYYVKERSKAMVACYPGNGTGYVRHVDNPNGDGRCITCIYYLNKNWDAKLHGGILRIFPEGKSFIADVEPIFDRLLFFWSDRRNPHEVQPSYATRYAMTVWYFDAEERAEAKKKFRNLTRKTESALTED

As a reminder, the EC50 is the concentration giving half of the maximal effect. Read a high EC50 as lower potency in that assay. `COC(=O)CNC(=O)c1ncc(-c2cccc(Cl)c2)cc1O` came in with an EC50 in the assay with VEGF of 9.9 µM.
In the assay on VEGF, `COC(=O)CNC(=O)c1ncc(-c2ccc(Cl)cc2)cc1O` yielded an EC50 of over 100 µM.
Turning to `Cc1ccc(-c2ccc(C(=O)NCC(=O)O)c(O)c2)cc1`, the EC50 in the assay with VEGF was over 100 µM.
Same read-out and setting: next, `COC(=O)CNC(=O)c1ncc(-c2ccc(C)cc2)cc1O`: 8.2 µM; `COC(=O)CNC(=O)c1ncc(-c2ccccc2Cl)cc1O`: 7.7 µM.
In the assay with VEGF, `CC(C)c1ccc(-c2cnc(C(=O)NCC(=O)O)c(O)c2)cc1` had a 50% effective concentration (EC50) of 15 µM.
Still for that read-out and setting: next, `CC(C)Oc1ccc(-c2cnc(C(=O)NCC(=O)O)c(O)c2)cc1`: over 100 µM.
On the same count and under the same terms, next, `Cc1ccc(Cl)cc1-c1cnc(C(=O)NCC(=O)O)c(O)c1`: 3.3 µM.
By IC50 is commonly meant the concentration at which inhibition is half-maximal. With `CNC(=O)CNC(=O)c1ncc(-c2cccc(Cl)c2)cc1O`, the IC50 on human EGLN-3 is 1.3 µM; on human EGLN-1, 1.2 µM. Further, the EPO response entry in the assay on EPO (in vivo response, mouse serum EPO) is on record as “yes”. In the assay on VEGF, this molecule came in with an EC50 of 1.4 µM.
In turn, `N#Cc1cccc(-c2cnc(C(=O)NCC(=O)O)c(O)c2)c1` displayed an EC50 in the assay with VEGF of over 100 µM.
In the assay on VEGF, `COC(=O)CNC(=O)c1ncc(-c2cccc(C(N)=O)c2)cc1O` registered an EC50 of 50.1 µM.
Same read-out and setting: in the case of `COC(=O)CNC(=O)c1ncc(-c2cccc(C(=O)N3CCCC3)c2)cc1O` it was over 100 µM; in that of `O=C(O)CNC(=O)c1ncc(-c2cccc(C(=O)N3CCCC3)c2)cc1O`, over 100 µM; in that of `O=C(O)CNC(=O)c1ncc(-c2cccc(-c3nn[nH]n3)c2)cc1O`, over 100 µM.
Take `O=C(O)CNC(=O)c1ncc(-c2cccc(Cl)c2)cc1O` [drawing 122]: in the assay with VEGF, a half-maximal effect (EC50) was put at 7.6 µM.
For `O=C(O)CNC(=O)c1ncc(-c2cccc(Cl)c2)cc1O` [{[5-(3-Chlorophenyl)-3-hydroxypyridine-2-carbonyl]amino}-acetic acid], the “erythropoietin level versus vehicle” value in the assay with EPO (mouse serum after oral dosing, FIG. 2) is “elevated versus vehicle”. For the same molecule, the “stabilization of HIF-1α (immunoblot analysis of nuclear extracts)” value with HIF-1α is listed as “stabilization of HIF-1α”.
